Reference: US20110281869A1, “TETRAHYDROISOQUINOLINES AS ANTIMALARIAL AGENTS” (priority 2008, published 2011)
Where two headings read alike, the source gives them in different places.

Tested on: P. falciparum K1
Experiment: Plasmodium falciparum in vitro assay ([3H] hypoxanthine incorporation)
Type: cell-based
Details: erythrocytic stages, strain K1 resistant to chloroquine and pyrimethamine, human red cells, read-out: IC50 (nM) on K1
Procedure: In vitro antimalarial activity: Plasmodium falciparum in vitro assay In vitro activity against erythrocytic stages of P. falciparum is determined using a [^3H] hypoxanthine incorporation assay. One strain resistant to chloroquine and pyrimethamine (P. falciparum K1) is used in the assays, and all test compounds are compared for activity with the standard drugs chloroquine (sigma C6628) and artemisinin (sigma-36, 159-3). Compounds are diluted in DMSO to 1 mM and added to parasite cultures incubated in RPMI 1640 medium without hypoxanthine, supplemented with HEPES (5.94 g/L), NaHCO3 (2.1 g/L), neomycin (100 U/mL), Albumax (5 g/L) and washed human red cells at 2.5% hematocrit (0.3% parasitaemia). Seven serial doubling dilutions of each drug are prepared in 96-well microtitre plates and incubated in a humidifying atmosphere at 37° C.; 4% CO2, 3% O2, 93% N2.
After 48 h, 50 μl of [^3H] hypoxanthine (0.5 μCi) is added to each well of a plate. The plates are incubated for a further 24 h under the same conditions. The plates are then harvested with a Betaplate cell harvester (Wallac) and washed with distilled water. The dried filters are inserted into a plastic foil with 10 mL of scintillation fluid, and counted in a Betaplate liquid scintillation counter. IC50 values are calculated from sigmoidal inhibition curves using Microsoft Excel.

Row | Compound | IC50 (Plasmodium falciparum) [nM] | IC50 [nM]
1 | Cc1nc(C)c(C=CC(=O)N(Cc2ccc(-c3ccncc3)cc2)[C@@H](Cc2ccccc2)C(=O)N2CCc3ccccc3C2)s1 [Example 247, (S)—N-[1-Benzyl-2-(3,4-dihydro-1H-isoquinolin-2-yl)-2-oxo-ethyl]-3-(2,4-dimethyl-thiazol-5-yl)-N-(4-pyridin-4-yl-benzyl)-acrylamide] | 4 | –
2 | Cc1c(C=CC(=O)N(Cc2ccc(-c3ccncc3)cc2)[C@@H](Cc2ccccc2)C(=O)N2CCc3ccccc3C2)cnn1C [Example 250, (S)—N-[1-Benzyl-2-(3,4-dihydro-1H-isoquinolin-2-yl)-2-oxo-ethyl]-3-(1,5-dimethyl-1H-pyrazol-4-yl)-N-(4-pyridin-4-yl-benzyl)-acrylamide] | 2 | –
3 | Cc1nc(C)c(C=CC(=O)N(Cc2ccc(N3CCOCC3)cc2)[C@@H](Cc2ccccc2)C(=O)N2CCc3ccccc3C2)s1 [Example 251, (S)—N-[1-Benzyl-2-(3,4-dihydro-1H-isoquinolin-2-yl)-2-oxo-ethyl]-3-(2,4-dimethyl-thiazol-5-yl)-N-(4-morpholin-4-yl-benzyl)-acrylamide] | 42 | –
4 | Cc1nc(C=CC(=O)N(Cc2ccc(-c3cncnc3)cc2)[C@@H](Cc2ccccc2)C(=O)N2CCc3ccccc3C2)c(C)o1 [Example 253, (S)—N-[1-Benzyl-2-(3,4-dihydro-1H-isoquinolin-2-yl)-2-oxo-ethyl]-3-(2,5-dimethyl-oxazol-4-yl)-N-(4-pyrimidin-5-yl-benzyl)-acrylamide] | 70 | –
5 | O=C([C@H](Cc1ccccc1)N(Cc1ccc(-c2cc[n+]([O-])cc2)cc1)C(=O)C=Cc1ccc(C(F)(F)F)cc1)N1CCc2ccccc2C1 [Example 254, (S)—N-[1-Benzyl-2-(3,4-dihydro-1-H-isoquinolin-2-yl)-2-oxo-ethyl]-N-[4-(1-oxy-pyridin-4-yl)-benzyl]-3-(4-trifluoromethyl-phenyl)-acrylamide] | – | < 7.8
